Like-named read-outs stand apart in the source and are kept apart here.

This is an account of results in patent US20260325533A1, “CDK INHIBITOR COMPOUNDS” (ALEKSIA THERAPEUTICS, INC., priority 2023, published 2026).

What all share (format): biochemical
Assay [1] concerns the target CDK1/CCNB1 (Homo sapiens, UniProt P06493). Nature of the assay: CDK1 homogeneous time-resolved fluorescence (HTRF) kinase assay. The conditions noted are these: CDK1/CCNB. The method in brief: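 Kinase activity is measured as Lance signal (665 nm, or 665/615 nm ratio) from europium-labelled anti-phospho-Thr37/46 antibody binding ULight-4E-BP1 peptide. Reactions contain 0.5 nM enzyme, 1 mM ATP, 1% DMSO and run 60 min at 23 °C before EDTA quench.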
For orientation: TR-FRET usually uses a lanthanide donor and a delayed reading to cut background.

The target of assay [2] is CDK4/CCND3 (Homo sapiens, UniProt P11802). Nature of the assay: CDK4 homogeneous time-resolved fluorescence (HTRF) kinase assay. The conditions noted are these: CDK4/CCND. The method in brief:
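Compounds were preincubated with 1.5 nM CDK4/CCND3 for 20 min at 23 °C in HEPES buffer (pH not given), then reacted 60 min with 1 mM ATP and 50 nM ULight-4E-BP1 (Thr37/46) peptide. EDTA stop, Eu-anti-phospho-4E-BP1 detection; 665/615 nm ratio; IC50 from 11-point half-log titrations from 10 μM.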

The target of assay [3] is CDK2/CCNE1 (Homo sapiens, UniProt P24941). Nature of the assay: CDK2 homogeneous time-resolved fluorescence (HTRF) kinase assay. The conditions noted are these: CDK2/CCNE. The method in brief:
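3 nM CDK2/CCNE1 was preincubated with compound for 20 min at 23 °C in HEPES buffer (pH not stated), then reacted 60 min with 1 mM ATP and 50 nM ULight-4E-BP1 (Thr37/46) peptide. After EDTA stop, Eu-anti-phospho-4E-BP1 antibody (2 nM) was added for 60 min and TR-FRET read at 665 nm.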

Assay [4] concerns the target CDK6/CCND1 (Homo sapiens, UniProt Q00534). Nature of the assay: CDK6 homogeneous time-resolved fluorescence (HTRF) kinase assay. The settings on record: CDK6/CCND, 1 mM ATP. The method in brief: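 1 nM enzyme, 1 mM ATP, 50 nM ULight-4E-BP1 (Thr37/46) peptide, 1% DMSO; 20 min compound preincubation, 60 min reaction, 23 °C. EDTA stop, 2 nM Eu-anti-phospho-4E-BP1 antibody 60 min. TR-FRET 665 nm (or 665/615 ratio); IC50 from 11-point half-log titration, top 10 μM.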

Where [5] appears, read: >250 nM, read-out: CDK1/CCNB IC50 >250 nM.
[6] abbreviates: >250 nM, read-out: CDK4/CCND IC50, >250 nM.
[7] abbreviates: 25-250 nM, read-out: CDK2/CCNE IC50, 25-250 nM.
Setting [8] is: >250 nM, read-out: CDK6/CCND IC50, >250 nM.
Setting [9] is: <25 nM, read-out: CDK2/CCNE IC50, <25 nM.
Setting [10] is: 25-250 nM, read-out: CDK1/CCNB IC50, 25-250 nM.
Where [11] appears, read: 25-250 nM, read-out: CDK4/CCND IC50, 25-250 nM.
[12] abbreviates: 25-250 nM, read-out: CDK6/CCND IC50, 25-250 nM.

Sequence of CDK4/CCND3 (P11802 whole entry): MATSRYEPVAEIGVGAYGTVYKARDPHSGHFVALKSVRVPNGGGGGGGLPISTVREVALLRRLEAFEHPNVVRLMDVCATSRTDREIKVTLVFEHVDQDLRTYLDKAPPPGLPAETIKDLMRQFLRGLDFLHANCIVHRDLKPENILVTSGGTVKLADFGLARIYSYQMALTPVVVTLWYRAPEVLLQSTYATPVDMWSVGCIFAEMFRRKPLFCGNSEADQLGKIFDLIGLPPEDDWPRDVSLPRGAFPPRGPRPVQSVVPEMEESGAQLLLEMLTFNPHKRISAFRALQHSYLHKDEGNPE
Sequence of CDK4/CCND3 (P30281 whole entry partner): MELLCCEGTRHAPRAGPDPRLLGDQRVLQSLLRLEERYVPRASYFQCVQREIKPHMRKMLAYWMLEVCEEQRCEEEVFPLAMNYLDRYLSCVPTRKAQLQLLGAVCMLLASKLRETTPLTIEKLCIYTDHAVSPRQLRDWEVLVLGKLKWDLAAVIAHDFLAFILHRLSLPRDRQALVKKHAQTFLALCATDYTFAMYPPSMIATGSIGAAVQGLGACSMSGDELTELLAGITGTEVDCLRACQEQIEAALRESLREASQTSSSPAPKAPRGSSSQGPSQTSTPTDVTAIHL
Sequence of CDK1/CCNB1 (P06493 whole entry): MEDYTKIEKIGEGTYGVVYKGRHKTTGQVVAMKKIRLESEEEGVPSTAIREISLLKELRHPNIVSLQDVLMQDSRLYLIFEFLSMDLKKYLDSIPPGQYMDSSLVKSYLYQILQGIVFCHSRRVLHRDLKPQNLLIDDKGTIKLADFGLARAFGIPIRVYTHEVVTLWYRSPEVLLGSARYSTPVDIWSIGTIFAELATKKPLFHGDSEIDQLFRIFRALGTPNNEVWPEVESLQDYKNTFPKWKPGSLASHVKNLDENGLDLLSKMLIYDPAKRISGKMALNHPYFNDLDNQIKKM
Sequence of CDK1/CCNB1 (P14635 whole entry partner): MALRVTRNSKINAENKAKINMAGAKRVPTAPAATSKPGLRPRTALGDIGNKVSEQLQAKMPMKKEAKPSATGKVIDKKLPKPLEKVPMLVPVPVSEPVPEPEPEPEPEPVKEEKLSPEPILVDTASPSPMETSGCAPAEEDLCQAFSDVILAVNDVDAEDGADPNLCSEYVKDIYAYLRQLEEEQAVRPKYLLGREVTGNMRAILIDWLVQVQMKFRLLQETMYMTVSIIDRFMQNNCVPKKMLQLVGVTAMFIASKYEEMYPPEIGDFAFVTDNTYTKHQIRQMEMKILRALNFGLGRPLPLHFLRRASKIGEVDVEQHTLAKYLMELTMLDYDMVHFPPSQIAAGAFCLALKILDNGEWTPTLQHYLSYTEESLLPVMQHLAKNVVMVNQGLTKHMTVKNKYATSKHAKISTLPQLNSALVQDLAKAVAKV
Sequence of CDK6/CCND1 (Q00534 whole entry): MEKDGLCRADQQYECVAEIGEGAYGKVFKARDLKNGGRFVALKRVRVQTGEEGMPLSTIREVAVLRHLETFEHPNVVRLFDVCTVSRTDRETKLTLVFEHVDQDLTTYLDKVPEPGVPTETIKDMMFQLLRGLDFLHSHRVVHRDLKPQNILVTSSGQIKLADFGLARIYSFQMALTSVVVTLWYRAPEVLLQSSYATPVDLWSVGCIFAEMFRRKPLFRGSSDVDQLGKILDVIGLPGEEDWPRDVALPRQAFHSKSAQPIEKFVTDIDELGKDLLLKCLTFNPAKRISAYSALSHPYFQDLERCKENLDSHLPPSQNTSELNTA
Sequence of CDK6/CCND1 (P24385 whole entry partner): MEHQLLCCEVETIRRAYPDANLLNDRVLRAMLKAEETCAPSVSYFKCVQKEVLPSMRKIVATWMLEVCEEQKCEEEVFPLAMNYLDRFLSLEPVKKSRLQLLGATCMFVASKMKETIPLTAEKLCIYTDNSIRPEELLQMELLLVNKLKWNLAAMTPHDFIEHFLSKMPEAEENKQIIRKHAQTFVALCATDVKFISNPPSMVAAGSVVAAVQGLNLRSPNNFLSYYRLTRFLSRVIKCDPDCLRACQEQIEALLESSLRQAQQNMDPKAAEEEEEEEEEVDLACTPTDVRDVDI

As to `Cc1oncc1S(=O)(=O)Nc1ccc(Nc2cc3c(-c4ccc5c(cnn5CC(C)(C)O)c4C)nccc3cn2)cc1` [Ex 833, N-(4-((5-(1-(2-hydroxy-2-methylpropyl)-4-methyl-1H-indazol-5-yl)-2,6-naphthyridin-3-yl)amino)phenyl)-5-methylisoxazole-4-sulfonamide], the IC50 in assay [1] (setting [5]) is > 250 nM; in assay [2] (setting [6]), > 250 nM; in assay [3] (setting [7]), 25 to 250 nM; in assay [4] (setting [8]), > 250 nM.
Turning to `Cc1c(-c2nccc3cnc(Nc4ccc(NS(=O)(=O)c5cccs5)cc4)cc23)ccc2c1cnn2CC(C)(C)O` [Ex 834, N-(4-((5-(1-(2-hydroxy-2-methylpropyl)-4-methyl-1H-indazol-5-yl)-2,6-naphthyridin-3-yl)amino)phenyl)thiophene-2-sulfonamide], the IC50 in assay [1] (setting [5]) was > 250 nM; in assay [2] (setting [6]), > 250 nM; in assay [3] (setting [9]), < 25 nM; in assay [4] (setting [8]) it was > 250 nM.
With `Cc1c(-c2nccc3cnc(Nc4ccc(NS(=O)(=O)c5cnn(C)c5)cc4)cc23)ccc2c1cnn2CC(C)(C)O` [Ex 835, N-(4-((5-(1-(2-hydroxy-2-methylpropyl)-4-methyl-1H-indazol-5-yl)-2,6-naphthyridin-3-yl)amino)phenyl)-1-methyl-1H-pyrazole-4-sulfonamide], the IC50 in assay [1] (setting [10]) was 25 to 250 nM; in assay [2] (setting [11]) it was 25 to 250 nM; in assay [3] (setting [9]), < 25 nM; in assay [4] (setting [12]), 25 to 250 nM.
Turning to `Cc1cc(Nc2cc3c(-c4ccc5c(cnn5CC(C)(C)O)c4C)nccc3cn2)ccc1S(C)(=O)=O` [Ex 836, 2-methyl-1-(4-methyl-5-(7-((3-methyl-4-(methylsulfonyl)phenyl)amino)-2,6-naphthyridin-1-yl)-1H-indazol-1-yl)propan-2-ol], the IC50 in assay [1] (setting [5]) was > 250 nM; in assay [2] (setting [6]), > 250 nM; in assay [3] (setting [9]), < 25 nM; in assay [4] (setting [8]) it was > 250 nM.
For `COc1cc(Nc2cc3c(-c4ccc5c(cnn5CC(C)(C)O)c4C)nccc3cn2)ccc1S(C)(=O)=O` [Ex 837, 1-(5-(7-((3-methoxy-4-(methylsulfonyl)phenyl)amino)-2,6-naphthyridin-1-yl)-4-methyl-1H-indazol-1-yl)-2-methylpropan-2-ol], the IC50 in assay [1] (setting [5]) was > 250 nM; in assay [2] (setting [6]) it was > 250 nM; in assay [3] (setting [7]), 25 to 250 nM; in assay [4] (setting [8]) it was > 250 nM.
On to `COc1cc(S(C)(=O)=O)ccc1Nc1cc2c(-c3ccc4c(cnn4CC(C)(C)O)c3C)nccc2cn1` [Ex 838, 1-(5-(7-((2-methoxy-4-(methylsulfonyl)phenyl)amino)-2,6-naphthyridin-1-yl)-4-methyl-1H-indazol-1-yl)-2-methylpropan-2-ol], for which the IC50 in assay [1] (setting [5]) was > 250 nM; in assay [2] (setting [6]), > 250 nM; in assay [3] (setting [9]), < 25 nM; in assay [4] (setting [8]), > 250 nM.
`Cc1c(-c2nccc3cnc(Nc4ccc(NS(=O)(=O)c5cccnc5)cc4)cc23)ccc2c1cnn2CC(C)(C)O` [Ex 839, N-(4-((5-(1-(2-hydroxy-2-methylpropyl)-4-methyl-1H-indazol-5-yl)-2,6-naphthyridin-3-yl)amino)phenyl)pyridine-3-sulfonamide]: the IC50 in assay [1] (setting [10]) was 25 to 250 nM; in assay [2] (setting [11]), 25 to 250 nM; in assay [3] (setting [9]), < 25 nM; in assay [4] (setting [12]), 25 to 250 nM.
For `C[C@@H]1CN(C)CCN1c1cc(Nc2cc3c(C#Cc4ccc(=O)[nH]n4)nccc3cn2)cnc1O` [Ex 840, (R)-6-((7-((5-(2,4-dimethylpiperazin-1-yl)-6-hydroxypyridin-3-yl)amino)-2,6-naphthyridin-1-yl)ethynyl)pyridazin-3(2H)-one], the IC50 was > 250 nM in assay [1] (setting [5]); > 250 nM in assay [2] (setting [6]); > 250 nM in assay [3] (>250 nM, read-out: CDK2/CCNE IC50, >250 nM); > 250 nM in assay [4] (setting [8]).
Take `Cc1ccnc(NS(=O)(=O)c2ccc(Nc3cc4c(-c5ccc6c(cnn6CC(C)(C)O)c5C)nccc4cn3)cc2)c1` [Ex 841, 4-((5-(1-(2-hydroxy-2-methylpropyl)-4-methyl-1H-indazol-5-yl)-2,6-naphthyridin-3-yl)amino)-N-(4-methylpyridin-2-yl)benzenesulfonamide]: the IC50 was > 250 nM in assay [1] (setting [5]), 25 to 250 nM in assay [2] (setting [11]), < 25 nM in assay [3] (setting [9]) and 25 to 250 nM in assay [4] (setting [12]).
In the case of `Cc1c(-c2nccc3cnc(Nc4ccc(S(=O)(=O)Nc5ccc(N6CCOCC6)nn5)cc4)cc23)ccc2c1cnn2CC(C)(C)O` [Ex 842, 4-((5-(1-(2-hydroxy-2-methylpropyl)-4-methyl-1H-indazol-5-yl)-2,6-naphthyridin-3-yl)amino)-N-(6-morpholinopyridazin-3-yl)benzenesulfonamide], the IC50 in assay [1] (setting [10]) is 25 to 250 nM; in assay [2] (setting [11]), 25 to 250 nM; in assay [3] (setting [9]) it was < 25 nM; in assay [4] (setting [12]), 25 to 250 nM.
In the case of `Cc1nn(C)cc1S(=O)(=O)Nc1ccc(Nc2cc3c(-c4ccc5c(cnn5CC(C)(C)O)c4C)nccc3cn2)cc1` [Ex 843, N-(4-((5-(1-(2-hydroxy-2-methylpropyl)-4-methyl-1H-indazol-5-yl)-2,6-naphthyridin-3-yl)amino)phenyl)-1,3-dimethyl-1H-pyrazole-4-sulfonamide], the IC50 is > 250 nM in assay [1] (setting [5]), 25 to 250 nM in assay [2] (setting [11]), < 25 nM in assay [3] (setting [9]) and 25 to 250 nM in assay [4] (setting [12]).
On to `Cc1c(-c2nccc3cnc(Nc4ccc(S(C)(=O)=O)c(C(F)(F)F)c4)cc23)ccc2c1cnn2CC(C)(C)O` [Ex 844, 2-methyl-1-(4-methyl-5-(7-((4-(methylsulfonyl)-3-(trifluoromethyl)phenyl)amino)-2,6-naphthyridin-1-yl)-1H-indazol-1-yl)propan-2-ol], for which the IC50 in assay [1] (setting [5]) is > 250 nM; in assay [2] (setting [6]) it was > 250 nM; in assay [3] (setting [7]) it was 25 to 250 nM; in assay [4] (setting [8]) it was > 250 nM.
Regarding `Cc1cc(S(C)(=O)=O)ccc1Nc1cc2c(-c3ccc4c(cnn4CC(C)(C)O)c3C)nccc2cn1` [Ex 845, 2-methyl-1-(4-methyl-5-(7-((2-methyl-4-(methylsulfonyl)phenyl)amino)-2,6-naphthyridin-1-yl)-1H-indazol-1-yl)propan-2-ol], the IC50 is > 250 nM in assay [1] (setting [5]), > 250 nM in assay [2] (setting [6]), < 25 nM in assay [3] (setting [9]) and 25 to 250 nM in assay [4] (setting [12]).
Consider `Cc1c(-c2nccc3cnc(Nc4ccc(S(C)(=O)=O)cc4F)cc23)ccc2c1cnn2CC(C)(C)O` [Ex 846, 1-(5-(7-((2-fluoro-4-(methylsulfonyl)phenyl)amino)-2,6-naphthyridin-1-yl)-4-methyl-1H-indazol-1-yl)-2-methylpropan-2-ol], for which the IC50 is > 250 nM in assay [1] (setting [5]), > 250 nM in assay [2] (setting [6]), < 25 nM in assay [3] (setting [9]) and > 250 nM in assay [4] (setting [8]).
`Cc1c(-c2nccc3cnc(Nc4ccc(S(C)(=O)=O)cc4Cl)cc23)ccc2c1cnn2CC(C)(C)O` [Ex 847, 1-(5-(7-((2-chloro-4-(methylsulfonyl)phenyl)amino)-2,6-naphthyridin-1-yl)-4-methyl-1H-indazol-1-yl)-2-methylpropan-2-ol]: the IC50 in assay [1] (setting [5]) is > 250 nM; in assay [2] (setting [6]), > 250 nM; in assay [3] (setting [7]), 25 to 250 nM; in assay [4] (setting [8]) it was > 250 nM.
Turning to `Cc1c(-c2nccc3cnc(Nc4ccc(S(C)(=O)=O)cn4)cc23)ccc2c1cnn2CC(C)(C)O` [Ex 848, 2-methyl-1-(4-methyl-5-(7-((5-(methylsulfonyl)pyridin-2-yl)amino)-2,6-naphthyridin-1-yl)-1H-indazol-1-yl)propan-2-ol], the IC50 in assay [1] (setting [5]) was > 250 nM; in assay [2] (setting [11]), 25 to 250 nM; in assay [3] (setting [9]), < 25 nM; in assay [4] (setting [12]), 25 to 250 nM.
